Reference: patent US20060165761A1, “Wound dressings comprising vanadate complexed with organic ligands” (priority 2002, published 2006)

How the values were obtained:
Adult dermal fibroblasts [1] = test: Determination of collagen levels (ELISA) deposited by fibroblasts; format: cell-based; conditions: for ability to stimulate collagen deposition (overall summary): absence of growth factors
Description: (§1) Adult dermal fibroblasts were grown until 95% confluent, trypsinized (2 ml trypsin plate) to prepare a single suspension of fibroblasts. These cells were diluted in DMEM (+10% FBS) media and diluted to a concentration of 25000 cells/ml. […] was placed in each well of a 96 well microplate (2500 cells/well). The fibroblasts were allowed to adhere and spread by incubating for 24 hours (at 37° C., 5% CO2 in a humidified atmosphere) at which point the media was removed and replaced with serum free DMEM+/−stimulant/sample.
(§2) The following vanadate complexes were added in quadruplicate: bpV(pic) was added to a final concentration of 8.14 and 0.81 μM, bpV(bipy) (bisperoxo(bipyridine)oxovanadate) was added to a final concentration of 178 and 17.8 μM. bpV(phen) was added to a final concentration of 12 or 0.124 μM, DMHV (bis-dimethylhydroxamido vanadate, (Me2N—O)2VO(OH)) was added to a final concentration of […]. The vanadate complexes were all obtained as the solid potassium salts from Calbiochem, Catalog numbers 203705, 322130, and 203695.
(§3) Negative control samples were untreated and positive control samples were cells treated with DMEM containing 10% FBS or 0.15 ng/ml epidermal growth factor. As a further positive control, Dephostatin (a known tyrosine protein phosphatase inhibitor obtained from Calbiochem, catalog number 263200) was added to a final concentration of 23.8 μM.
Additional experiments were performed using the phosphatase inhibitors indicated above in the presence of epidermal growth factor (0.015 ng/ml) or platelet derived growth factor (6 ng/ml).
The amount of collagen produce and deposited into the extracellular environment under each experimental condition was measured using an ELISA method. Collagen type I standards (Sigma cat no 7774, lot 32K3775) and material aspirated from the fibroblasts were coated onto 96 well plates (FALCON 3072) by incubation at 37° C. for 30 min. Non-specific sites were blocked by the addition of […] of 5% solution of bovine serum albumin (BSA) for 30 min. Each well was incubated with a monoclonal antibody against collagen used at a dilution of 1/2000 ((sigma cat no. 2456, lot 081K4897) overnight at 4° C. Samples were washed five times for 5 minutes in wash buffer (PBS+0.05% (v/v) TWEEN-20) and incubated with an HRP-conjugated second antibody against mouse IgG at a dilution of 1/10000 for 2 hr. Each well was washed five times in wash buffer. Deposited collagen was detected using the Sigma FAST method used according to the manufacturers instructions. The plates were incubated at room temperature for 30 minutes and read using a MR5000 plate reader at 450 nm.

Adult dermal fibroblasts [2] = test: XTT cell proliferation assay; format: cell-based; conditions: for amount of fibroblast proliferation (FIG. 2): 72 hrs; for ability to stimulate cell proliferation (overall summary): absence of growth factors
Description: as §1, §2
as §3, with “μM. […]” for “μM.”
After 72 hrs the fluid was aspirated off and […] of the XTT labelling mixture (prepared by adding 0.1 ml Electron coupling reagent to every 5 mls of XTT labelling reagent) was added to each well. The plates were read at 450 nm, using a MR5000 plate reader at 2, 2.5 and 3.5 hrs.

acute wounds in rats = conditions: vanadate ingestion; cited from earlier work
[3] = tested on: capillary endothelial cells; conditions: in vitro; mimics fibroblast growth factor; cited from earlier work
bone cell = conditions: in vitro; cited from earlier work

CN(C)[O][V](=[O])([OH])[O]N(C)C [DMHV, bis-dimethylhydroxamido vanadate, (Me2N—O)2VO(OH)]
amount of collagen deposited by fibroblasts (FIG. 1) (Adult dermal fibroblasts [1]; 6.4-64 μM, compared to positive control): equivalent to the positive control | ability to stimulate collagen deposition (overall summary) (Adult dermal fibroblasts [1]): equivalent to the DMHV positive control | amount of fibroblast proliferation (FIG. 2) (Adult dermal fibroblasts [2]; 64 μM, compared to negative control): greater than the negative control | ability to stimulate cell proliferation (overall summary) (Adult dermal fibroblasts [2]): equivalent to the DMHV positive control

CN(N=O)c1cc(O)ccc1O [Dephostatin, reference compound]
amount of collagen deposited by fibroblasts (FIG. 1) (Adult dermal fibroblasts [1]; 23.8 μM, compared to positive control): equivalent to the positive control | amount of fibroblast proliferation (FIG. 2) (Adult dermal fibroblasts [2]; 23.8 μM, compared to negative control): greater than the negative control

[O-2].[O-][O-].[O-][O-].[V+5].c1cnc2c(c1)ccc1cccnc12 [bpV(phen), bisperoxo-(1,10-phenanthroline)-oxovanadate]
ability to stimulate collagen deposition (overall summary) (Adult dermal fibroblasts [1]; listed as bpV (phen)): exception | ability to stimulate collagen deposition (overall summary) (Adult dermal fibroblasts [1]; listed as bpV(Phen)): does not enhance | ability to stimulate cell proliferation (overall summary) (Adult dermal fibroblasts [2]; listed as bpV (Phen)): inhibitor of proliferation | ability to stimulate cell proliferation (overall summary) (Adult dermal fibroblasts [2]; listed as bpV (phen)): exception | ability to stimulate cell proliferation (overall summary) (Adult dermal fibroblasts [2]; listed as bpV(Phen)): does not enhance

[Na+].[Na+].[Na+].[O]=[V]([O-])([O-])[O-] [vanadate, Sodium Orthovanadate]
gain in wound breaking strength (acute wounds in rats): increases | organisation of collagen fibres during healing (acute wounds in rats): better organised collagen fibres | endothelial cells invade collagen matrices and organise into tubules [3]: stimulates endothelial cells to invade collagen matrices and organise into tubules | bone cell proliferation (bone cell): stimulates | bone collagen synthesis (bone cell): stimulates

Bisperoxo (5-hydroxy pyridine-2-carboxyvanadate) [bpV(pic)]
amount of collagen deposited by fibroblasts (FIG. 1) (Adult dermal fibroblasts [1]; 8.14 μm, compared to non treated negative control and FBS and EGF positive controls): most effective activator of collagen deposition | ability to stimulate collagen deposition (overall summary) (Adult dermal fibroblasts [1]): more effective than even the 10% FBS positive control | amount of fibroblast proliferation (FIG. 2) (Adult dermal fibroblasts [2]; 8.14 μM, compared to non treated negative control and FBS and EGF positive controls): most effective activator cell proliferation | amount of fibroblast proliferation (FIG. 3) (Adult dermal fibroblasts [2]; 8.14 μM, compared to non treated and vanadate at 0.1 and 0.01 mmolar): more effective activator of cell proliferation | ability to stimulate cell proliferation (overall summary) (Adult dermal fibroblasts [2]): more effective than even the 10% FBS positive control

bisperoxo(bipyridine)oxovanadate [bpV(bipy)]
amount of collagen deposited by fibroblasts (FIG. 1) (Adult dermal fibroblasts [1]; 17.8 μM, compared to positive control): equivalent to the positive control | amount of fibroblast proliferation (FIG. 2) (Adult dermal fibroblasts [2]; 17.8 μM, compared to negative control): greater than the negative control
